Legend:
[1] = system: Bacterial vaginosis (BV); details: following metronidazole treatment of BV; cited from earlier work
[2] = system: Staphylococcus aureus; details: multiple 30 minute treatments of 160 ppm nitric oxide; cited from earlier work
[3] = system: E. coli; assay: Biofilm sterilization by gaseous NO; assay type: cell-based, Escherichia coli; details: 20,000 ppm NO, 1 liter/minute, 5, 10, 30, 60 or 120 minutes
Method: (§1) A biofilm was established in each well of a 6-well plate and the time of treatment with nitric oxide gas for eradication of the biofilm was tested using the biofilm formation assay described hereinabove.
(§2) Briefly, 3 ml of LB media were placed in each well of 12 6-well plates and then each well was inoculated with 10 μl of stock bacteria (E. Coli or A. baumanii (6 plates for each bacterial type). Plates were incubated with agitation for 5 days at 37° C. to establish a biofilm in each well. The media was removed and each well washed twice with sterile saline.
(§3) Plates with established biofilms (one for each bacterial type) were treated with nitric oxide (20,000 ppm, 1 liter/minute flow rate) for 5, 10, 30, 60 or 120 minutes. Control plates were kept at room temperature, without treatment.
(§4) Three of the six wells for each plate were stained with crystal violet to confirm biofilm formation. The biofilm in the remaining 3 wells of each plate was re-suspended (with 30 seconds sonication) in 5 ml sterile saline. Aliquots of 1, 10 and 100 μl of each sample were plated in compartmentalized (3-section) petri plates.

[4] = system: Pseudomonas aeruginosa; details: multiple 30 minute treatments of 160 ppm nitric oxide; cited from earlier work
[5] = system: E. coli; assay: Sterilization of E. coli-inoculated catheter sections by nitric oxide dosing (CFU count); assay type: cell-based, Escherichia coli; details: 20,000 ppm NO, 30 cc/minutes
Method: Six-mm diameter Folysil® silicone Foley catheters, (catalog no. AA6118; Coloplast® Corp. Minneapolis, Minn., USA) (Folysil® and Coloplast® are registered trademarks of Coloplast A/S, Humlebaek, Denmark) were aseptically cut into 2-cm sections and inoculated by immersion in 2 ml of one of 10^3 CFU/ml, 10^5CFU/ml, or 10^8 CFU/ml E. coli. inocula for 30 minutes. Inoculated catheter sections were subsequently dosed with 20,000 parts per million of nitric oxide (at a flow rate of 30 cc/minutes) during 1, 5, 15, 30, 60 or 120 minutes, using the general procedure I described hereinabove. Control catheter sections were not impregnated with nitric oxide, but were stored in sterile sealed vials.
The nitric oxide-treated and untreated catheter segments were then immersed separately in 2 ml media and then incubated for 8 hours at 37° C. Aliquots of the incubation media were plated and numbers of CFU counted. Bacterial loads were calculated as CFU per ml.
Foley catheters, (catalog no. AA6118; Coloplast® Corp. Minneapolis, Minn., USA) is aseptically cut into 2-cm sections and inoculated by immersion in 2 ml of one of 10^3 CFU/ml, 10^5 CFU/ml, or 10^8 CFU/ml E. coli. inocula for 30 minutes. Inoculated catheter sections are subsequently dosed with nitric oxide using the general procedure II described hereinabove. Control catheter sections are not impregnated with nitric oxide, but are stored in sterile sealed vials.
The nitric oxide-treated and untreated catheter segments are then immersed separately in 2 ml media and incubated for 8 hours at 37° C. Aliquots of the incubation media are plated and numbers of CFU counted. Bacterial loads are calculated as CFU per ml.

[6] = system: A. baumanii; assay: Biofilm sterilization by gaseous NO; assay type: cell-based, Acinetobacter baumanii; details: 20,000 ppm NO, 1 liter/minute, 5, 10, 30, 60 or 120 minutes
Method: as §1, §2, §3, §4

[7] = system: E. coli; details: multiple 30 minute treatments of 160 ppm nitric oxide; cited from earlier work

Compound | cure rate [1] | decrease in the bacterial load [2] | colonies from re-suspended established biofilm [3] | decrease in the bacterial load [4] | treatment time after which the catheter segments were sterilized ([5]; 10^3 bacterial stock) | treatment time after which the catheter segments were sterilized ([5]; 10^5 bacterial stock) | treatment time after which the catheter segments were sterilized ([5]; 10^8 bacterial stock) | colonies from re-suspended established biofilm [6] | decrease in the bacterial load [7]
Cc1ncc([N+](=O)[O-])n1CCO [metronidazole] | 61% |  |  |  |  |  |  |  | 
[N]=O [nitric oxide] |  | > 5 log 10 colony forming unit per milliliter (CFU/ml) | no colonies were observed | > 5 log 10 colony forming unit per milliliter (CFU/ml) | 1 min | 15 min | 15 min | no colonies were observed | > 5 log 10 colony forming unit per milliliter (CFU/ml)

From US20130078298A1, “GASEOUS NITRIC OXIDE-SEQUESTERING PRODUCTS AND PROCESSES OF PREPARING SAME” (Enox Biopharma, Inc, priority 2010, published 2013)
